Patent US9758527B2, “Cyclohexene derivative, preparation method therefor, and pharmaceutical composition for preventing or treating metabolic diseases, containing same as active ingredient” (HYUNDAI PHARM CO., LTD., priority 2014, dated 2017)
pEC50: −log10 of the molar value. Where two headings read alike, the source gives them in different places.

Molecular target: T1, G protein-coupled receptor 119 (GPR-119) (Mesocricetus auratus, UniProt A0A1U8CD06)
T1 construct: hamster-derived β-cells containing G protein-coupled receptor 119 (GPR-119), HIT-T15 cells; host or cells: HIT-T15 (hamster pancreatic β-cells)
T1 sequence (A0A1U8CD06 1-334): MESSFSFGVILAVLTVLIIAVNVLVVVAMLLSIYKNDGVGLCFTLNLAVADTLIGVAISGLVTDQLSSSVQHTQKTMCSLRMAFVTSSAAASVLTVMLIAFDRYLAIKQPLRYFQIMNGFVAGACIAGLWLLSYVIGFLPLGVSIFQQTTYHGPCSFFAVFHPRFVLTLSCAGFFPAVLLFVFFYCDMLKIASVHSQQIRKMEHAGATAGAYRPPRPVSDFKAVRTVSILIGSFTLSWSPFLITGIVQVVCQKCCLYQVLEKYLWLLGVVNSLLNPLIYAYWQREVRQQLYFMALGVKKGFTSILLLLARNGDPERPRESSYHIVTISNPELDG
Assay: Evaluation of cAMP activity in HIT-T15 cells (HTRF cAMP dynamic kit)
Format: cell-based, hamster
Conditions: cAMP activation; for EC50: EC50 (nM)
Summary of the method: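 HIT-T15 cells, 60,000/well, treated next day with compound at six concentrations ([…]) for 1 h at 37° C. Lysate cAMP quantified by HTRF competitive immunoassay (D2-cAMP, cryptate anti-cAMP); activity taken as change in FRET signal relative to DMSO.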

[1] = 1 h at 37° C., six concentrations, read-out: EC50
[2] = 1 h at 37° C., six concentrations

CC(C)c1noc(N2CCC(COc3ccc(C4=CCC(C(=O)N5CCc6ccccc6C5C)CC4)cc3)CC2)n1 (centres unmarked) [Example 213, (4-(4-((1-(3-isopropyl-1,2,4-oxadiazol-5-yl)piperidin-4-yl)methoxy)phenyl)cyclohex-3-enyl)(1-methyl-3,4-dihydroisoquinolin-2(1H)-yl)methanone]
pEC50 [1]: 7.62
pEC50 (read-out: EC50 value): ≥ 7.30

CCc1cnc(N2CCC(COc3ccc(C4=CCC(C(=O)N5CCC(N6CCOCC6)CC5)CC4)cc3)CC2)nc1 (centres unmarked) [Example 220, (4-(4-((1-(5-ethylpyrimidin-2-yl)piperidin-4-yl)methoxy)phenyl)cyclohex-3-enyl)(4-morpholinopiperidin-1-yl)methanone]
pEC50 [1]: 7.40
pEC50 (read-out: EC50 value): ≥ 7.30

CON(C)C(=O)C1CC=C(c2ccc(OCC3CCN(C(=O)OC(C)(C)C)CC3)cc2)CC1 (centres unmarked) [Example 223, tert-butyl 4-((4-(4-(methoxy(methyl)carbamoyl)cyclohex-1-enyl)phenoxy)methyl)piperidine-1-carboxylate]
pEC50 [1]: 7.60
pEC50 (read-out: EC50 value): ≥ 7.30

CC(C)(C)OC(=O)N1CCC(COc2ccc(C3=CCC(C(=O)N4CC=CC4)CC3)cc2)CC1 (centres unmarked) [Example 224, tert-butyl 4-((4-(4-(2,5-dihydro-1H-pyrrole-1-carbonyl)cyclohex-1-enyl)phenoxy)methyl)piperidine-1-carboxylate]
pEC50 [1]: 7.42
pEC50 (read-out: EC50 value): ≥ 7.30

CC(C)(C)OC(=O)N1CCC(COc2ccc(C3=CCC(C(=O)N4CCC(O)CC4)CC3)cc2)CC1 (centres unmarked) [Example 225, tert-butyl 4-((4-(4-(4-hydroxypiperidine-1-carbonyl)cyclohex-1-enyl)phenoxy)methyl)piperidine-1-carboxylate]
pEC50 [1]: 7.66
pEC50 (read-out: EC50 value): ≥ 7.30

CC(C)(C)OC(=O)N1CCC(COc2ccc(C3=CCC(C(=O)N4CCC(CO)CC4)CC3)cc2)CC1 (centres unmarked) [Example 226, tert-butyl 4-((4-(4-(4-(hydroxymethyl)piperidine-1-carbonyl)cyclohex-1-enyl)phenoxy)methyl)piperidine-1-carboxylate]
pEC50 [1]: 7.85
pEC50 (read-out: EC50 value): ≥ 7.30

CCc1cnc(N2CCC(COc3ccc(C4=CCC(C(=O)N5CCC6(C=Cc7ccccc76)CC5)CC4)cc3)CC2)nc1 (centres unmarked) [Example 228, (4-(4-((1-(5-ethylpyrimidin-2-yl)piperidin-4-yl)methoxy)phenyl)cyclohex-3-enyl)(spiro[indene-1,4′-piperidin]-1′-yl)methanone]
pEC50 [1]: 8.10
pEC50 (read-out: EC50 value): ≥ 7.30

CCc1cnc(N2CCC(COc3ccc(C4=CCC(C(=O)N5CCC6(CC5)OCCO6)CC4)cc3)CC2)nc1 (centres unmarked) [Example 229, (4-(4-((1-(5-ethylpyrimidin-2-yl)piperidin-4-yl)methoxy)phenyl)cyclohex-3-enyl)(1,4-dioxa-8-azaspiro[4.5]decan-8-yl)methanone]
EC50 [2]: 11 nM
pEC50 (EC50 value): ≥ 7.30

CCc1cnc(N2CCC(COc3ccc(C4=CCC(C(=O)N5CC=CC5)CC4)cc3)CC2)nc1 (centres unmarked) [Example 235, (2,5-dihydro-1H-pyrrol-1-yl)(4-(4-((1-(5-ethylpyrimidin-2-yl)piperidin-4-yl)methoxy)phenyl)cyclohex-3-enyl)methanone]
pEC50 [1]: 7.62

CN(CCO)C(=O)C1CC=C(c2ccc(OCC3CCN(C(=O)OC(C)(C)C)CC3)cc2)CC1 (centres unmarked) [Example 236, tert-butyl 4-((4-(4-((2-hydroxyethyl)(methyl)carbamoyl)cyclohex-1-enyl)phenoxy)methyl)piperidine-1-carboxylate]
pEC50 [1]: 7.85
pEC50 (read-out: EC50 value): ≥ 7.30

CC(C)(C)OC(=O)N1CCC(COc2ccc(C3=CCC(C(=O)N4CCc5ccccc5C4)CC3)cc2)CC1 (centres unmarked) [Example 239, tert-butyl 4-((4-(4-(1,2,3,4-tetrahydroisoquinoline-2-carbonyl)cyclohex-1-enyl)phenoxy)methyl)piperidine-1-carboxylate]
pEC50 [1]: 7.66

CCc1cnc(N2CCC(COc3ccc(C4=CCC(C(=O)N(C)CCCO)CC4)cc3)CC2)nc1 (centres unmarked) [Example 242, 4-(4-((1-(5-ethylpyrimidin-2-yl)piperidin-4-yl)methoxy)phenyl)-N-(3-hydroxypropyl)-N-methylcyclohex-3-enecarboxamide]
pEC50 [1]: 7.68
pEC50 (read-out: EC50 value): ≥ 7.30

CC(C)c1noc(N2CCC(COc3ccc(C4=CCC(C(=O)N(C)CCCO)CC4)cc3)CC2)n1 (centres unmarked) [Example 243, N-(3-hydroxypropyl)-4-(4-((1-(3-isopropyl-1,2,4-oxadiazol-5-yl)piperidin-4-yl)methoxy)phenyl)-N-methylcyclohex-3-enecarboxamide]
pEC50 [1]: 7.52
pEC50 (read-out: EC50 value): ≥ 7.30

CON(C)C(=O)C1CC=C(c2ccc(OCC3CCN(c4nc(C(C)C)no4)CC3)cc2)CC1 (centres unmarked) [Example 247, 4-(4-((1-(3-isopropyl-1,2,4-oxadiazol-5-yl)piperidin-4-yl)methoxy)phenyl)-N-methoxy-N-methylcyclohex-3-enecarboxamide]
pEC50 [1]: 7.80
pEC50 (read-out: EC50 value): ≥ 7.30

CCc1cnc(N2CCC(COc3ccc(C4=CCC(C(=O)N5CCC(=O)C5)CC4)cc3)CC2)nc1 (centres unmarked) [Example 250, 1-(4-(4-((1-(5-ethylpyrimidin-2-yl)piperidin-4-yl)methoxy)phenyl)cyclohex-3-enecarbonyl)pyrrolidin-3-one]
pEC50 [1]: 7.92
pEC50 (read-out: EC50 value): ≥ 7.30

CCc1cnc(N2CCC(COc3ccc(C4=CCC(C(=O)N5C/C(=N\OC)C(CO)(CO)C5)CC4)cc3)CC2)nc1 (centres unmarked) [Example 253, (Z)-(3,3-bis(hydroxymethyl)-4-(methoxyimino)pyrrolidin-1-yl)(4-(4-((1-(5-ethylpyrimidin-2-yl)piperidin-4-yl)methoxy)phenyl)cyclohex-3-enyl)methanone]
pEC50 [1]: 8.05

CCc1cnc(N2CCC(COc3ccc(C4=CCC(C(=O)N5C/C(=N\OC)C6(CN(C(=O)OC(C)(C)C)C6)C5)CC4)cc3)CC2)nc1 (centres unmarked) [Example 254, (Z)-tert-butyl 6-(4-(4-((1-(5-ethylpyrimidin-2-yl)piperidin-4-yl)methoxy)phenyl)cyclohex-3-enecarbonyl)-8-(methoxyimino)-2,6-diazaspiro[3.4]octane-2-carboxylate]
pEC50 [1]: 8.00
pEC50 (read-out: EC50 value): ≥ 7.30

CC(C)(C)OC(=O)N1CCC(COc2ccc(C3=CCC(C(=O)N4CCN(CC5CC5)CC4)CC3)cc2)CC1 (centres unmarked) [Example 256, tert-butyl 4-((4-(4-(4-(cyclopropylmethyl)piperazine-1-carbonyl)cyclohex-1-enyl)phenoxy)methyl)piperidine-1-carboxylate]
pEC50 [1]: 7.49

CC(C)(C)OC(=O)N1CCC(COc2ccc(C3=CCC(C(=O)N4CCC(F)(F)C4)CC3)cc2)CC1 (centres unmarked) [Example 257, tert-butyl 4-((4-(4-(3,3-difluoropyrrolidine-1-carbonyl)cyclohex-1-enyl)phenoxy)methyl)piperidine-1-carboxylate]
pEC50 [1]: 8.10
pEC50 (read-out: EC50 value): ≥ 7.30

CCc1cnc(N2CCC(COc3ccc(C4=CCC(C(=O)N5CCC(F)(F)C5)CC4)cc3)CC2)nc1 (centres unmarked) [Example 258, (3,3-difluoropyrrolidin-1-yl)(4-(4-((1-(5-ethylpyrimidin-2-yl)piperidin-4-yl)methoxy)phenyl)cyclohex-3-enyl)methanone]
pEC50 [1]: 8.00
pEC50 (read-out: EC50 value): ≥ 7.30

CC(C)c1noc(N2CCC(COc3ccc(C4=CCC(C(=O)N5CCC(F)(F)C5)CC4)cc3)CC2)n1 (centres unmarked) [Example 259, (3,3-difluoropyrrolidin-1-yl)(4-(4-((1-(3-isopropyl-1,2,4-oxadiazol-5-yl)piperidin-4-yl)methoxy)phenyl)cyclohex-3-enyl)methanone]
pEC50 [1]: 8.00
pEC50 (read-out: EC50 value): ≥ 7.30

CC(C)(C)OC(=O)N1CCC(COc2ccc(C3=CCC(C(=O)N4CCC5(CC4)OCCO5)CC3)cc2)CC1 (centres unmarked) [Example 263, tert-butyl 4-((4-(4-(1,4-dioxa-8-azaspiro[4.5]decane-8-carbonyl)cyclohex-1-enyl)phenoxy)methyl)piperidine-1-carboxylate]
EC50 [2]: 9 nM
pEC50 (EC50 value): ≥ 7.30

CC(C)(C)OC(=O)N1CCC(COc2ccc(C3=CCC(C(=O)N4CCC5(C=Cc6ccccc65)CC4)CC3)cc2)CC1 (centres unmarked) [Example 264, tert-butyl 4-((4-(4-(spiro[indene-1,4′-piperidin]-1′-ylcarbonyl)cyclohex-1-enyl)phenoxy)methyl)piperidine-1-carboxylate]
pEC50 [1]: 7.74

CC(C)(C)OC(=O)N1CCC(COc2ccc(C3=CCC(C(=O)N4CCC(=O)C4)CC3)cc2)CC1 (centres unmarked) [Example 265, tert-butyl 4-((4-(4-(3-oxopyrrolidine-1-carbonyl)cyclohex-1-enyl)phenoxy)methyl)piperidine-1-carboxylate]
pEC50 [1]: 7.49
pEC50 (read-out: EC50 value): ≥ 7.30

CC(C)c1noc(N2CCC(COc3ccc(C4=CCC(C(=O)N5CCC(C#N)CC5)CC4)cc3)CC2)n1 (centres unmarked) [Example 266, 1-(4-(4-((1-(3-isopropyl-1,2,4-oxadiazol-5-yl)piperidin-4-yl)methoxy)phenyl)cyclohex-3-enecarbonyl)piperidine-4-carbonitrile]
pEC50 [1]: 7.92
pEC50 (read-out: EC50 value): ≥ 7.30

CC(C)c1noc(N2CCC(COc3ccc(C4=CCC(C(=O)N5CCC6(CC5)OCCO6)CC4)cc3)CC2)n1 (centres unmarked) [Example 267, (4-(4-((1-(3-isopropyl-1,2,4-oxadiazol-5-yl)piperidin-4-yl)methoxy)phenyl)cyclohex-3-enyl)(1,4-dioxa-8-azaspiro[4.5]decan-8-yl)methanone]
EC50 [2]: 21 nM
pEC50 (EC50 value): ≥ 7.30
